Laboratory results as given in patent US7541364B2, “Pyridomorphinans, pyridazinomorphinans and use thereof” (priority 2003, dated 2009).
Read-outs that look alike come from different tables or passages of the source.

Columns and labels:
[1] = target: T1, opioid δ receptor (Rattus norvegicus, UniProt P33533); assay: Opioid δ receptor binding, [3H]DADLE displacement in rat brain membranes
T1 construct: Rat membranes are prepared each day using a partially thawed frozen rat brain; from tissue; host or cells: rat brain membranes

[2] = target: T2, opioid μ receptor (Rattus norvegicus, UniProt P33535); conditions: for selectivity ratio μ/δ: ratio of binding Ki values; for Ki: read-out: Ki (nM) ± SEM μ, displacement of [3H]DAMGO (1.4-3.0 nM), rat brain membranes
[3] = tested on: mice; assay: 55° C. tail-flick antinociception test in mice; conditions: for naloxone sensitivity: naloxone 10 mg/kg ip, -10 min, yes = greater than 80% reduction in the antinociceptive effect
Procedure: Analgesic Testing and Assessment of Tolerance Development. The analgesic activity of selected ligands is tested in mice using the 55° C. tail-flick test as previously described. (See Wells et al., supra.) The test compounds are administered by the intracerbroventricular (icv) route. […] To determine whether the analgesic activity of the tested compounds is mediated through opioid receptors, the blockade of antinociceptive activity by pretreatment with naloxone is carried out. The analgesic activity was considered as naloxone sensitive if greater than 80% reduction in the antinociceptive response is observed.
Antinociceptive Studies. Male ICR mice (Harlan) are used for all evaluations. Mice are housed in a temperature and humidity controlled vivarium on a 12:12 h light:dark cycle with unlimited access to food and water prior to the formal procedures. […] The dihydrochloride salt of 7h is dissolved in water and injected in a volume of 5 μL. All other compounds are dissolved in 100% DMSO and injected in a volume of 5 μL. Antinociceptive assays are performed at various times after injection.
Percent antinociception is calculated using the formula: % MPE (maximal possible effect)=100×(test−control)/(cutoff−control) where control is the predrug observation, test is the postdrug observation, and cutoff is the maximal length of stimulus allowed (10 s for 55° C. tail-flick). Antinociceptive A50 values and 95% confidence intervals are determined using linear regression software (FlashCalc). Opioid activity of the test compounds are assessed by pretreating animals with naloxone (10 mg/kg ip, −10 min) followed by an icv injection of an approximate A90 dose of test compound. […] Antinociception is assessed in the 55° C. tail-flick test at 10, 20 and 30 min. A positive response to a fixed dose of naloxone is indicated when greater than 80% reduction in the antinociceptive effect of the agonist is observed.

[4] = target: T3, opioid κ receptor (Cavia porcellus, UniProt P41144); conditions: for selectivity ratio κ/δ: ratio of binding Ki values; for Ki: read-out: Ki (nM) ± SEM κ, displacement of [3H]U69,593 (1.2-[…]), guinea pig brain membranes
[5] = target: T4, κ receptor (Cavia porcellus, UniProt P41144); assay: biochemical
[6] = target: T5, δ receptor (Cavia porcellus, UniProt A0A286XTF2); assay: biochemical
[7] = target: T6, μ receptor (Cavia porcellus, UniProt A0ACM8Q262); conditions: read-out: antagonist activity apparent Ki (nM ± SD) μ; inhibition of DAMGO (10 μM) stimulated [35S]GTP-γ-S binding
[8] = target: T7, δ receptor (mouse vas deferens) (Mus musculus, UniProt P32300); assay: Mouse vas deferens (MVD) smooth muscle bioassay; parameters: from tissue; host or cells: mouse vas deferens (male ICR mice)
Procedure: (§1) Bioassays in Smooth Muscle Preparations. The functional activity profiles of selected ligands are also determined in the mouse vas deferens (MVD) and guinea pig ileum (GPI) smooth muscle preparations as described previously.
(§2) The agonist activity is determined by the ability of the compound to inhibit electrically stimulated contractions of the GPI and MVD. The GPI is primarily a μ receptor preparation, even though the ileum does also contain κ receptors. In the MVD, the opioid effects are predominantly mediated through δ receptors, but μ and κ receptors also exist in this tissue.
(§3) Tissues came from male ICR mice weighing 25-40 g and male Hartley guinea pigs weighing 250-500 g. The tissues are tied to gold chain with suture silk, suspended in 20 mL baths containing 37° C. oxygenated (95% O2, 5% CO2) Krebs bicarbonate solution (magnesium free for the MVD), and allowed to equilibrate for 15 min. The tissues are then stretched to optimal length previously determined to be 1 g tension (0.5 g for MVD) and allowed to equilibrate for 15 min. The tissues are stimulated transmurally between platinum wire electrodes at 0.1 Hz, 0.4 ms pulses (2-ms pulses for MVD), and supramaximal voltage. […] Tissues not producing typical results are not used. Experimental compounds were added to the baths in 14-60 μL volumes. Succeeding doses of agonist are added cumulatively to the bath at 3 min intervals to produce a concentration-response curve. The tissues are then washed extensively with fresh buffer until the original contraction height is reestablished. […] The tissues are then washed with fresh buffer for 30 min, and the agonist dose-response curve was repeated. Rightward shifts in the dose-response curves are calculated by dividing the antagonized dose-response curve IC50 value by the unantagonized IC50 value. IC50 values represent the mean of two to four tissues. IC50 estimates and their associated standard errors are determined by using a computerized nonlinear least-squares method. (MINSQ Least Squares Parameter Estimation, version 3.05; MicroMath Inc., 1999.)

[9] = target: T2, opioid μ receptor; assay: biochemical
[10] = target: T3, opioid κ receptor; assay: biochemical
[11] = target: T6, μ receptor; assay: biochemical; conditions: read-out: agonist activity Emax % μ
[12] = target: T5, δ receptor; conditions: δ receptors, partial inhibition with increasing concentrations
[13] = target: T7, δ receptor (mouse vas deferens); assay: Mouse vas deferens (MVD) smooth muscle bioassay; conditions: inhibition of electrically stimulated contractions; read-out: agonist activity MVD (δ) IC50
Procedure: as §1, §2, §3

[14] = target: T4, κ receptor
[15] = target: T2, opioid μ receptor; conditions: data from Ananthan et al. (I); cited from earlier work
[16] = target: μ receptor (guinea pig ileum) (Cavia porcellus, UniProt A0ACM8Q262); conditions: data from Ananthan et al. (I), cited from earlier work
[17] = target: T7, δ receptor (mouse vas deferens); parameters: from tissue; host or cells: mouse vas deferens (male ICR mice); conditions: DPDPE as agonist; data from Ananthan et al. (I); cited from earlier work
[18] = target: T3, opioid κ receptor; conditions: data from Ananthan et al. (I); cited from earlier work
[19] = target: T7, δ receptor (mouse vas deferens); conditions: percentage inhibition of contraction at 1 μM; data from Ananthan et al. (I); cited from earlier work
[20] = displacement of [3H]DADLE (1.3-2.0 nM), rat brain membranes, 100 nM DAMGO to block μ sites, read-out: Ki (nM) ± SEM δ

T7 sequence (P32300 whole entry): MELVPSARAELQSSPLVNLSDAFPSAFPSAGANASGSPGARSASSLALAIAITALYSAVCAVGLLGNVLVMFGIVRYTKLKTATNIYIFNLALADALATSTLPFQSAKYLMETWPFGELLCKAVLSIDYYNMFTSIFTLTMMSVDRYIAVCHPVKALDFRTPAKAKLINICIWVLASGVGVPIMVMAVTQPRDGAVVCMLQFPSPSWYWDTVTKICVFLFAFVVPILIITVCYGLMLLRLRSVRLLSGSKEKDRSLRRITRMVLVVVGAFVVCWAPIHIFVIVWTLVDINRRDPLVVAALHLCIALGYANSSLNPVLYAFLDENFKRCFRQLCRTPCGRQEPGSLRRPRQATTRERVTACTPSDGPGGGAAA
T1 sequence (P33533 whole entry): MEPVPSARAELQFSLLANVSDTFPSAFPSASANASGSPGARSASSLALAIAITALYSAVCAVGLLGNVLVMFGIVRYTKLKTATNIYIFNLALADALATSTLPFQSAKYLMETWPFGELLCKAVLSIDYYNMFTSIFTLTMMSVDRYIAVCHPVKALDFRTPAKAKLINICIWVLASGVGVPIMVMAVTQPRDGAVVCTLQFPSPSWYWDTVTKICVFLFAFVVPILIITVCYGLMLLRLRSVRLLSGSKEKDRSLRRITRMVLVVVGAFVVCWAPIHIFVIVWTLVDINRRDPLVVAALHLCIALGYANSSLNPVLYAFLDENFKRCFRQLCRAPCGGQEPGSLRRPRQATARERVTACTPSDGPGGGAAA
T2 sequence (P33535 whole entry): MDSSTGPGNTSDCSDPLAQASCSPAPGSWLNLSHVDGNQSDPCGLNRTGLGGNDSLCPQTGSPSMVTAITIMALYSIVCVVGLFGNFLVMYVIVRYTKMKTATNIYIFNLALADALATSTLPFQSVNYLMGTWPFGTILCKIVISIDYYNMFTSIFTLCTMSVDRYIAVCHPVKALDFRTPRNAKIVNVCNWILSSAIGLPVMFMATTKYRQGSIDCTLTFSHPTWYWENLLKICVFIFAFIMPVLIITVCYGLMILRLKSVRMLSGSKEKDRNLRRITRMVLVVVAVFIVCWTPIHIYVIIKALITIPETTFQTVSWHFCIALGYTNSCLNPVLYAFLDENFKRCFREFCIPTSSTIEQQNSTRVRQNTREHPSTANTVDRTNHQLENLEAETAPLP
T5 sequence (A0A286XTF2 1-366): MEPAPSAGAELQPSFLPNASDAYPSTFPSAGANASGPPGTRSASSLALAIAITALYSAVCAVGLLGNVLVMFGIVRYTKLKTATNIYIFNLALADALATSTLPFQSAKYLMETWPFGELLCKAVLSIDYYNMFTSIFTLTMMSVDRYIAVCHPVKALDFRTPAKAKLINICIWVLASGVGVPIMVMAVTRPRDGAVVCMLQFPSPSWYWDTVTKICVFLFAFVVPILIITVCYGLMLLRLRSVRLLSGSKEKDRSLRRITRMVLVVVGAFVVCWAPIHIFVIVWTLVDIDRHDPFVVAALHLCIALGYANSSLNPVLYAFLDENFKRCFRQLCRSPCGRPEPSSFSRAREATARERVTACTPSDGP
T4 sequence (P41144 whole entry): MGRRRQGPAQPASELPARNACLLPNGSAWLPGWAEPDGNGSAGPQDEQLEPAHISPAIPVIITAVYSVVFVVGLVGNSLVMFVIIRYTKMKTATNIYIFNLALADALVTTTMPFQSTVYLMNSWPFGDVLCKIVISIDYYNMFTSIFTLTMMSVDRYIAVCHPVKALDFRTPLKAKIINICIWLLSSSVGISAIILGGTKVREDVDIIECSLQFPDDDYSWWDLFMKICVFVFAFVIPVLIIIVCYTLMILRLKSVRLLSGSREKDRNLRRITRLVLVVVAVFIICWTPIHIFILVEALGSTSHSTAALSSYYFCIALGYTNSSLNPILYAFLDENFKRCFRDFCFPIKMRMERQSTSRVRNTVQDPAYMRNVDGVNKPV
T3 sequence (P41144 whole entry): as above
T6 sequence (A0ACM8Q262 1-400): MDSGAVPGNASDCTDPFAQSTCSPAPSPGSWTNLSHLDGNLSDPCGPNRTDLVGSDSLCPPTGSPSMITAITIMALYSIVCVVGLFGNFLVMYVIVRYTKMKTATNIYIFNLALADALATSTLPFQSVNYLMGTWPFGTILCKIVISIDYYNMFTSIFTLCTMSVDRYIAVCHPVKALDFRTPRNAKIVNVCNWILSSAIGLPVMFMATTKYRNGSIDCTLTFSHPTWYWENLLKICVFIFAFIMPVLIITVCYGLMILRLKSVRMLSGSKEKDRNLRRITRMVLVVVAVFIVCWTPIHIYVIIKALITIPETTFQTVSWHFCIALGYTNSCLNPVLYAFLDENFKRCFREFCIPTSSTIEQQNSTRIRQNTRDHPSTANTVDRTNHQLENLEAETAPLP
Sequence of μ receptor (guinea pig ileum) (A0ACM8Q262 1-400): as above

SMILES | Ki [1] | selectivity ratio μ/δ [2] | Ki [2] | melting point | factor that prevented determining the A50 value ([3]; icv, mouse tail-flick) | naloxone sensitivity [3] | selectivity ratio κ/δ [4] | Ki [4] | Ki [7] | Ki [9] | Ki [10] | Emax [11] | Ki [1, 20] | maximum percentage inhibition of SNC-80 stimulated [35S]GTP-γ-S binding [12] | IC50 [6] | further results
CN1CC[C@]23c4c5ccc(O)c4O[C@H]2c2ncc(-c4ccc(Cl)cc4)cc2C[C@@]3(O)[C@H]1C5 [7d, 5′-(4-Chlorophenyl)-6,7-didehydro-3,14-dihydroxy-4,5α-epoxy-17-methylpyrido[2′,3′:6,7]morphinan] | 3.96 ± 0.23 nM | 58 | 230 ± 10 nM | 196 to 198 °C | lack of potency | partial | 118 | 468 ± 17 nM | > 1000 nM | – | – | – | – | – | – | % nociception @ 300 nmol ([3]; icv, mouse tail-flick): 43% @ 300 nmol; Ki [5]: 767 ± 54 nM; Ki [6]: 17 nM; Kb [8]: 38.2 ± 14.7 nM; antagonist activity MVD (δ) Ke ([8]; DPDPE as agonist, 1 μM compound, 30 min preincubation): 38 nM
Oc1ccc2c3c1O[C@H]1c4[nH]c5ccccc5c4C[C@@]4(O)C(C2)N(CC2CC2)CC[C@]314 [1, NTI, reference compound] | – | – | – | – | – | – | – | – | 3.21 ± 0.2 nM | – | – | – | – | – | – | Ki [5]: 8.85 ± 0.8 nM
CN1CCC23c4c5ccc(O)c4OC2c2ncc(-c4ccc(Br)cc4)cc2CC3(O)C1C5 (stereo not drawn) [7e, 5′-(4-Bromophenyl)-6,7-didehydro-3,14-dihydroxy-4,5α-epoxy-17-methylpyrido[2′,3′:6,7]morphinan] | 4 ± 0.3 nM | 49 | – | 196 to 198 °C | – | – | 108 | – | – | 196 ± 4 nM | 432 ± 18 nM | – | – | – | – | –
CN1CC[C@]23c4c5ccc(O)c4O[C@H]2c2ncc(-c4ccccc4)cc2C[C@@]3(O)[C@H]1C5 [7c, 6,7-Didehydro-3,14-dihydroxy-4,5α-epoxy-17-methyl-5′-phenylpyrido[2′,3′:6,7]morphinan] | – | 9 | 26 ± 0.96 nM | 190 to 192 °C | lack of efficacy | no | 124 | 360 ± 17 nM | > 1000 nM | – | – | 27% | 2.9 ± 0.12 nM | 61±3% | 920 nM | IC50 [13]: 213 ± 55.8 nM; % nociception @ 100 nmol ([3]; icv, 100 nmol, mouse tail-flick): 64% @ 100 nmol
CN1CC[C@]23c4c5ccc(O)c4O[C@H]2c2ncc(-c4ccc(Cl)c(Cl)c4)cc2C[C@H]3[C@H]1C5 [7j, 5′-(3,4-Dichlorophenyl)-6,7-didehydro-4,5α-epoxy-3-hydroxy-17-methylpyrido[2′,3′:6,7]morphinan] | – | 25 | 93 ± 4 nM | 184 to 186 °C | lack of efficacy | – | 75 | 278 ± 7 nM | > 1000 nM | – | – | 63 ± 3% | 3.7 ± 0.14 nM | 58±3% | 74 nM | maximum inhibition at the κ receptors [14]: 66±6%; IC50 [13]: 489 ± 164 nM; % nociception @ 300 nmol ([3]; icv, mouse tail-flick): 44% @ 300 nmol; IC50 [5]: 4770 nM
COc1ccc2c3c1OC1c4ncc(-c5ccccc5)cc4CC4(O)C(C2)N(C)CCC314 (stereo not drawn) [7n, 6,7-didehydro-4,5α-epoxy-14-hydroxy-3-methoxy-17-methyl-5′-phenylpyrido[2′,3′:6,7]-morphinan] | 34 ± 0.63 nM | 26 | – | > 250 °C | – | – | >294 | – | – | 894 ± 19 nM | > 10000 nM | – | – | – | – | –
CN1CC[C@]23c4c5ccc(O)c4O[C@H]2c2ncc(-c4ccc(Br)cc4)cc2C[C@H]3[C@H]1C5 [7i, 5′-(4-Bromophenyl)-6,7-didehydro-4,5α-epoxy-3-hydroxy-17-methylpyrido[2′,3′:6,7]morphinan] | – | 40 | 200 ± 11 nM | 186 to 188 °C | – | yes | 18 | 91 ± 6 nM | > 1000 nM | – | – | 59 ± 3% | 5 ± 0.6 nM | 69±3% | 55 nM | Ki ([14]; read-out: antagonist activity apparent Ki (nM ± SD) κ): 265 ± 29 nM; A50 ([3]; icv, mouse tail-flick, at time of peak drug effect): 47.2 nmol; Kb [8]: 20 ± 6.59 nM
Oc1ccc2c3c1OC1c4ncccc4CC4(O)C(C2)N(CC2CC2)CCC314 (centres unmarked) [2a] | – | – | – | – | – | – | – | – | – | – | – | – | – | – | – | selectivity ratio μ/δ [15]: 1.9; antagonist activity GPI (μ) Ke ([16]; PL-017 as agonist): 190 ± 65 nM; agonist activity GPI (μ) % max resp ([16]; percentage inhibition of contraction at 1 μM): 0%; antagonist activity MVD (δ) Ke [17]: 37.0 ± 1.0 nM; selectivity ratio κ/δ [18]: 11; agonist activity MVD (δ) % max resp [19]: 0%
COc1ccc2c3c1OC1c4ncc(-c5ccc(Br)cc5)cc4CC4(O)C(C2)N(C)CCC314 (stereo not drawn) [7p, 5′-(4-bromophenyl)-6,7-didehydro-4,5α-epoxy-14-hydroxy-3-methoxy-17-methyl-pyrido[2′,3′:6,7]morphinan] | 23 ± 1.3 nM | 82 | – | > 230 °C | – | – | 320 | – | – | 1890 ± 72 nM | 7370 ± 522 nM | – | – | – | – | –
